Where “and” joins values, the source holds several entries; their conditions need not be identical. Equal values may be shown once.
Species on record: Rattus norvegicus
Experiment: DrugMatrix - Regimen: Daily Repeat
Type: toxicity, organism-based, Sprague-Dawley
Parameters: regimen Daily Repeat, gender Male, age 6-8 weeks
Conditions: in vivo, po, route oral GAVAGE, vehicle .5 % CMC; for ABSOLUTE BASOPHIL / ABSOLUTE EOSINOPHIL / ABSOLUTE LYMPHOCYTE / ABSOLUTE MONOCYTE / BASOPHIL / EOSINOPHIL / ERYTHROCYTE COUNT / HEMATOCRIT / HEMOGLOBIN / LEUKOCYTE COUNT / LYMPHOCYTE / MEAN CORPUSCULAR HEMOGLOBIN / MEAN CORPUSCULAR HEMOGLOBIN CONCENTRATION / MEAN CORPUSCULAR VOLUME / MONOCYTE / NEUTROPHIL / PLATELET COUNT / ABSOLUTE SEGMENTED NEUTROPHIL / NUCLEATED RED BLOOD CELLS: tissue Blood; for ALANINE AMINOTRANSFERASE / ALBUMIN / ALKALINE PHOSPHATASE / ASPARTATE AMINOTRANSFERASE / BLOOD UREA NITROGEN / CARBON DIOXIDE / CHLORIDE / CHOLESTEROL / CREATINE PHOSPHOKINASE / CREATININE / GLUCOSE / LACTATE DEHYDROGENASE / LIPASE / PHOSPHORUS / POTASSIUM / SODIUM / TOTAL BILIRUBIN / TOTAL PROTEIN / URIC ACID: tissue Plasma
[1] = 10 mg/kg, […], dose level Low, time 14 day
[2] = 100 mg/kg, 72 h, dose level High, time 3 day
[3] = 100 mg/kg, 120 h, dose level High, time 5 day
[4] = 100 mg/kg, […], dose level High, time 14 day

Q: What does the source list for CN(C)CCN(Cc1cccs1)c1ccccn1?
A: ABSOLUTE BASOPHIL [1]: 83.3 cells/µL; ABSOLUTE EOSINOPHIL [1]: 66.7 cells/µL; ABSOLUTE LYMPHOCYTE [1]: 10000 cells/µL; ABSOLUTE MONOCYTE [1]: 240 cells/µL; BASOPHIL [1]: 0.53%; EOSINOPHIL [1]: 0.52%; ERYTHROCYTE COUNT [1]: 7.47 x10E6/uL; HEMATOCRIT [1]: 47.12%; HEMOGLOBIN [1]: 14.82 G/DL; LEUKOCYTE COUNT [1]: 12.98 x10E3/uL; LYMPHOCYTE [1]: 76.93%; MEAN CORPUSCULAR HEMOGLOBIN [1]: 19.85 pg; MEAN CORPUSCULAR HEMOGLOBIN CONCENTRATION [1]: 31.43 G/DL; MEAN CORPUSCULAR VOLUME [1]: 63.1 fL; MONOCYTE [1]: 1.83%; NEUTROPHIL [1]: 19.2%; PLATELET COUNT [1]: 1264.5 x10E3/uL; ALANINE AMINOTRANSFERASE [1]: 47.67 u/L; ALBUMIN [1]: 3.87 G/DL; ALKALINE PHOSPHATASE [1]: 477 u/L; ASPARTATE AMINOTRANSFERASE [1]: 81.33 u/L; BLOOD UREA NITROGEN [1]: 14.83 mg/dL; CARBON DIOXIDE [1]: 38.33 mmol/L; CHLORIDE [1]: 105.17 MEQ/L; CHOLESTEROL [1]: 68.67 mg/dL; CREATINE PHOSPHOKINASE [1]: 223.17 u/L; CREATININE [1]: 0.68 mg/dL; GLUCOSE [1]: 155.83 mg/dL; LACTATE DEHYDROGENASE [1]: 95.83 u/L; LIPASE [1]: 18.67 u/L; PHOSPHORUS [1]: 10.72 mg/dL; POTASSIUM [1]: 6.3 MEQ/L; SODIUM [1]: 151.83 MEQ/L; TOTAL BILIRUBIN [1]: 0.27 mg/dL; TOTAL PROTEIN [1]: 6.77 G/DL; URIC ACID [1]: 1.22 mg/dL; ABSOLUTE BASOPHIL [2]: 0 CELLS/uL; ABSOLUTE EOSINOPHIL [2]: 62.67 CELLS/uL; ABSOLUTE LYMPHOCYTE [2]: 11170 CELLS/uL; ABSOLUTE MONOCYTE [2]: 125.33 CELLS/uL; ABSOLUTE SEGMENTED NEUTROPHIL [2]: 1608.67 CELLS/uL; BASOPHIL [2]: 0%; EOSINOPHIL [2]: 0.33%; ERYTHROCYTE COUNT [2]: 5.22 x10E6/uL; HEMATOCRIT [2]: 32.67%; HEMOGLOBIN [2]: 12.17 G/DL; LEUKOCYTE COUNT [2]: 12.97 x10E3/uL; LYMPHOCYTE [2]: 81.67%; MEAN CORPUSCULAR HEMOGLOBIN [2]: 23.37 pg; MEAN CORPUSCULAR HEMOGLOBIN CONCENTRATION [2]: 37.27 G/DL; MEAN CORPUSCULAR VOLUME [2]: 62.6 fL; MONOCYTE [2]: 0.67%; NEUTROPHIL [2]: 17.33%; NUCLEATED RED BLOOD CELLS [2]: 0 /100WBC; PLATELET COUNT [2]: 1093.67 x10E3/uL; ALANINE AMINOTRANSFERASE [2]: 71.33 u/L; ALBUMIN [2]: 3.77 G/DL; ALKALINE PHOSPHATASE [2]: 555.67 u/L; ASPARTATE AMINOTRANSFERASE [2]: 110.67 u/L; BLOOD UREA NITROGEN [2]: 15.67 mg/dL; CARBON DIOXIDE [2]: 32.33 mmol/L; CHLORIDE [2]: 99.67 MEQ/L; CHOLESTEROL [2]: 134.33 mg/dL; CREATINE PHOSPHOKINASE [2]: 382 u/L; CREATININE [2]: 0.22 mg/dL; GLUCOSE [2]: 140 mg/dL; LACTATE DEHYDROGENASE [2]: 129.67 u/L; LIPASE [2]: 11.33 u/L; PHOSPHORUS [2]: 12.07 mg/dL; POTASSIUM [2]: 5.88 MEQ/L; SODIUM [2]: 143.37 MEQ/L; TOTAL BILIRUBIN [2]: 0.47 mg/dL; TOTAL PROTEIN [2]: 5.77 G/DL; URIC ACID [2]: 0.43 mg/dL; ABSOLUTE SEGMENTED NEUTROPHIL [3]: 1008.67 CELLS/uL; BASOPHIL [3]: 0.97% and 0%; EOSINOPHIL [3]: 0.55% and 0%; ERYTHROCYTE COUNT [3]: 7.33 x10E6/uL and 5.52 x10E6/uL; HEMATOCRIT [3]: 45.42% and 34.13%; HEMOGLOBIN [3]: 14.18 G/DL and 13.07 G/DL; LEUKOCYTE COUNT [3]: 20.78 x10E3/uL and 14.4 x10E3/uL; LYMPHOCYTE [3]: 80.47% and 90%; MEAN CORPUSCULAR HEMOGLOBIN [3]: 19.32 pg and 23.73 pg; MEAN CORPUSCULAR HEMOGLOBIN CONCENTRATION [3]: 31.2 G/DL and 38.33 G/DL; MEAN CORPUSCULAR VOLUME [3]: 61.95 fL and 61.97 fL; MONOCYTE [3]: 3.85% and 3%; NEUTROPHIL [3]: 12.68% and 7%; NUCLEATED RED BLOOD CELLS [3]: 0 /100WBC; PLATELET COUNT [3]: 1277.75 x10E3/uL and 1530.33 x10E3/uL; ALANINE AMINOTRANSFERASE [3]: 138.25 u/L and 130.33 u/L; ALBUMIN [3]: 3.45 G/DL and 4.23 G/DL; ALKALINE PHOSPHATASE [3]: 618 u/L and 531.33 u/L; ASPARTATE AMINOTRANSFERASE [3]: 321 u/L and 308.67 u/L; BLOOD UREA NITROGEN [3]: 15.75 mg/dL and 15.33 mg/dL; CARBON DIOXIDE [3]: 37 mmol/L and 36.67 mmol/L; CHLORIDE [3]: 104.75 MEQ/L and 97.67 MEQ/L; CHOLESTEROL [3]: 98.5 mg/dL and 113.67 mg/dL; CREATINE PHOSPHOKINASE [3]: 398.5 u/L and 603.33 u/L; CREATININE [3]: 0.5 mg/dL and 0.25 mg/dL; GLUCOSE [3]: 151.25 mg/dL and 120.33 mg/dL; LACTATE DEHYDROGENASE [3]: 162.5 u/L and 250.33 u/L; LIPASE [3]: 17 u/L and 9.67 u/L; PHOSPHORUS [3]: 11.03 mg/dL and 12.1 mg/dL; POTASSIUM [3]: 6.62 MEQ/L and 5.82 MEQ/L; SODIUM [3]: 151 MEQ/L and 142.77 MEQ/L; TOTAL BILIRUBIN [3]: 0.4 mg/dL and 0.37 mg/dL; TOTAL PROTEIN [3]: 5.72 G/DL and 6.2 G/DL; URIC ACID [3]: 1.07 mg/dL and 0.63 mg/dL; ABSOLUTE BASOPHIL [4]: 150 cells/µL; ABSOLUTE EOSINOPHIL [4]: 75 cells/µL; ABSOLUTE LYMPHOCYTE [4]: 12900 cells/µL; ABSOLUTE MONOCYTE [4]: 390 cells/µL; BASOPHIL [4]: 0.77%; EOSINOPHIL [4]: 0.5%; ERYTHROCYTE COUNT [4]: 8.39 x10E6/uL; HEMATOCRIT [4]: 49.5%; HEMOGLOBIN [4]: 15.85 G/DL; LEUKOCYTE COUNT [4]: 15.58 x10E3/uL; LYMPHOCYTE [4]: 82.28%; MEAN CORPUSCULAR HEMOGLOBIN [4]: 18.95 pg; MEAN CORPUSCULAR HEMOGLOBIN CONCENTRATION [4]: 32.1 G/DL; MEAN CORPUSCULAR VOLUME [4]: 59.02 fL; MONOCYTE [4]: 2.45%; NEUTROPHIL [4]: 12.85%; PLATELET COUNT [4]: 1440.5 x10E3/uL; ALANINE AMINOTRANSFERASE [4]: 70.83 u/L; ALBUMIN [4]: 3.47 G/DL; ALKALINE PHOSPHATASE [4]: 569.83 u/L; ASPARTATE AMINOTRANSFERASE [4]: 277.5 u/L; BLOOD UREA NITROGEN [4]: 17.17 mg/dL; CARBON DIOXIDE [4]: 33.83 mmol/L; CHLORIDE [4]: 106.33 MEQ/L; CHOLESTEROL [4]: 60.17 mg/dL; CREATINE PHOSPHOKINASE [4]: 264.5 u/L; CREATININE [4]: 0.7 mg/dL; GLUCOSE [4]: 134.5 mg/dL; LACTATE DEHYDROGENASE [4]: 165.67 u/L; LIPASE [4]: 22.2 u/L; PHOSPHORUS [4]: 11.25 mg/dL; POTASSIUM [4]: 6.93 MEQ/L; SODIUM [4]: 150.83 MEQ/L; TOTAL BILIRUBIN [4]: 0.65 mg/dL; TOTAL PROTEIN [4]: 5.93 G/DL; URIC ACID [4]: 1.82 mg/dL

— ChEMBL document CHEMBL3885881, “DrugMatrix”
